One data set has as its system yeast strain BY4742. Description: Detection of leucine by bioluminescence of leucine-auxotrophic BY4742 carrying pRS426-Lux (Example 4). The settings on record: CSM-Leu-URA medium, leucine added after 5 h incubation, FIG. 4. It counts as cell-based, Saccharomyces cerevisiae. Here is the method: (§1) D-Luciferin sodium salt (Carl Roth, Germany) was dissolved in 0.1 M Na2 HPO4-citrate buffer pH 5 to a final luciferin concentration of 1 mM. 100 μl of an overnight yeast culture was adjusted depending on the experimental question to a suitable starting OD600 of around 1.0 or less in CSM medium. 100 μl of yeast cells, 25 μl of a test solution (e.g., amino acid), and 25 μl of 1 mM luciferin solution were added in this order to a well of a black 96-well microtiter plate with a transparent bottom (Microplate, 96 well, PS, F-Bottom (Chimney Well) μClear®, Black, Med. Binding; Greiner bio-one, Germany) for a measurement. Measurements were performed using a Tristar2S Platereader (Berthold, Germany) at a constant temperature of 28° C.
The yeast strain BY4742 used by the inventors has several auxotrophies, including leucine auxotrophy, which makes this strain useful for leucine detection. For this purpose, the strain was grown overnight in CSM-URA medium. […] After 5 h of incubation, a defined amount of leucine was added and luminescence was subsequently measured (FIG. 4). […] The relationship between available leucine and measured bioluminescence behaves in a concentration-dependent manner within a certain concentration range, so that the leucine concentration can be correlated and measured with the bioluminescence.

Data set [1] deals with S. cerevisiae strain BY4742. Description: Luminescence comparison of bacterial luciferase construct with Firefly luciferase in BY4742 (Example 2). The data set is classed as cell-based, Saccharomyces cerevisiae. How it is done:
as §1
The luciferase from Photinus pyralis was chosen for comparison because it is most commonly used in bioanalysis (see FIG. 6).
After both plasmids have the same genetic requirements, such as FBA1 promoter and terminator, the same vector backbone and were also transformed into BY4742, both plasmids could be directly compared. The experiment was performed twice with three technical replicates each time. The cultures were grown overnight at 28° C. and were each diluted with 50 μl of fresh medium (YPD medium). For the produced prototype (nucleic acid according to the invention, SEQ ID NO: 7), water was added instead of 50 μl of the luciferin solution (2 mM final concentration).
The luminescence of the Firefly luciferase is about 100,000 RLU. In contrast, the […]. After 5.4 h, only a low luminescence of 6893 can be measured (see FIG. 2D). The CSM-URA plates were photographed in daylight (FIG. 2A) and in complete darkness (FIG. 2B) by a commercial photographic camera. The naked eye was also able to perceive the light produced by the yeasts.

For the molecule `CC(C)C[C@H](N)C(=O)O` [leucine], in the data set on yeast strain BY4742, the “leucine concentration from which organisms grow and light signal increases regardless of concentration” value is given as above 49 mg/L; the “leucine concentration with limiting effect on cell metabolism and maximum possible bioluminescence” value is “less than 20 mg/L”.
“Firefly luciferase: plasmid encoding Photinus pyralis luciferase under the FBA1 promoter and terminator, same pRS426 backbone”: the initial luminescence in data set [1] (BY4742, FBA1 promoter/terminator, YPD, luciferin 2 mM added only for Firefly, FIG. 2D) was 52,475 RLU. In data set [1] (BY4742, FIG. 2D, luciferin added only for Firefly), the “luminescence after 5.4 h” value is given as 6893 RLU. Besides, in data set [1] (BY4742, luciferin 2 mM final, FIG. 2D), the “luminescence after 1.7 h” value is recorded as 19,143 RLU.

(Values after patent publication US12644104B2, “Detection of environmental influences by bioluminescence” (priority 2020, dated 2026).)
